This note sets out measurements from patent US20240174662A1, “SMALL MOLECULE INHIBITORS OF SALT INDUCIBLE KINASES” (Janssen Biotech, Inc., priority 2021, published 2024).

Structures are written as SMILES.

This assay deals with SIK2 (Homo sapiens (Human), UniProt Q9H0K1). Briefly: SIK2 Enzymatic Assay Version 2 (High ATP). In kind it is biochemical. As to conditions: 3 mM ATP and 200 μM HDAC5tide final, ADP-Glo Max luminescence. Put shortly:
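Run at room temperature; SIK2 enzyme at 6 nM (2× final) preincubated with compound 30 min before reaction. ADP formation detected by ADP-Glo Max (2 h reagent, 1 h detection) with luminescence read-out.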
For orientation: ADP-Glo first removes unused ATP, then detects ADP through luciferase.

Sequence of SIK2 (Q9H0K1 whole entry, species assumed): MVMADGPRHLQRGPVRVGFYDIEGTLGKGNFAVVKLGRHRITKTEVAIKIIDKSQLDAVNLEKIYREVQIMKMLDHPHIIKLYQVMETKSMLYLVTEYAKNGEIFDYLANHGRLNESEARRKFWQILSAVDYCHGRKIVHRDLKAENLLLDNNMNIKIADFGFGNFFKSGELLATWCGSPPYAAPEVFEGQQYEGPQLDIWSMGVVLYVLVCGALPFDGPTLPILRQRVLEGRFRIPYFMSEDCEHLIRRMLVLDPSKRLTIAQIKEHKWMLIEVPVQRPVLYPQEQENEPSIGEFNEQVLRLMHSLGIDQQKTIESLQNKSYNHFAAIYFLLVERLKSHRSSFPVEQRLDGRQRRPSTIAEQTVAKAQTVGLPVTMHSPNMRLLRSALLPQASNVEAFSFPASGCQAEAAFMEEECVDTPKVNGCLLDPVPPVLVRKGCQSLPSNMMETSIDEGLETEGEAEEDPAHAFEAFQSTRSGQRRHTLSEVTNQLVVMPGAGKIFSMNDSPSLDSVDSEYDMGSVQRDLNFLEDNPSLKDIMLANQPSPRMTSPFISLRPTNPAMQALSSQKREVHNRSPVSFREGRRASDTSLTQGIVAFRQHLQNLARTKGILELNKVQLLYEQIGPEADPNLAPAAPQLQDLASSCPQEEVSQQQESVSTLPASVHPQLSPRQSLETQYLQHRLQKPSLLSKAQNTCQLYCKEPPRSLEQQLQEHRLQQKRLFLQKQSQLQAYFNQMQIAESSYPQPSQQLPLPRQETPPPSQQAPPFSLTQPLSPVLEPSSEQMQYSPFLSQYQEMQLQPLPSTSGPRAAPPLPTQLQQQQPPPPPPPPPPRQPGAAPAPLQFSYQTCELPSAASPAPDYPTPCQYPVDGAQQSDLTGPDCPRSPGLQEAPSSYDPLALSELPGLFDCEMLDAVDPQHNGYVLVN

As for `Cc1cc(Nc2cc3cc(-c4c(CO[C@H]5CN(C)C[C@H]5C)cnn4C)ccn3n2)nc(C)n1` [Example 367, (rac-cis)-N-(2,6-dimethylpyrimidin-4-yl)-5-[4-[(1,4-dimethylpyrrolidin-3-yl)oxymethyl]-2-methyl-pyrazol-3-yl]pyrazolo[1,5-a]pyridin-2-amine], half-maximal inhibition (IC50) required 2.9 nM.

In the case of `CN1C[C@@H](F)[C@@H](Oc2cnn(C)c2-c2ccn3nc(NC(=O)C4CC4)cc3c2)C1` [Example 499], 720 nM corresponded to half-maximal inhibition (IC50).

On to `Cn1ncc(OC[C@H]2CCN2C[C@@H]2CCCO2)c1-c1ccn2nc(NC(=O)C3CC3)cc2c1` (relative stereo) [Example 353, (*S)—N-[5-[2-methyl-4-[[1-(tetrahydrofuran-2-ylmethyl)azetidin-2-yl]methoxy]pyrazol-3-yl]pyrazolo[1,5-a]pyridin-2-yl]cyclopropanecarboxamide], for which the 50% inhibitory concentration (IC50) (as a rule, the concentration needed to halve the response being measured) came to 67.9 nM.

As to `CCC1(OCc2cnn(C)c2-c2ccn3nc(NC(=O)C4CC4)cc3c2)CN(C)C1` [Example 468, N-[5-[4-[(3-ethyl-1-methyl-azetidin-3-yl)oxymethyl]-2-methyl-pyrazol-3-yl]pyrazolo[1,5-a]pyridin-2-yl]cyclopropanecarboxamide], the IC50 is 81.7 nM. The IC50 values of the last two compounds are within 1.5-fold of each other.

For `Cc1onc(OC[C@H]2NCC2(C)C)c1-c1ccn2nc(NC(=O)C3CC3)cc2c1` [Example 89, N-[5-[3-[[(2S)-3,3-dimethylazetidin-2-yl]methoxy]-5-methyl-isoxazol-4-yl]pyrazolo[1,5-a]pyridin-2-yl]cyclopropanecarboxamide], the concentration for half-maximal inhibition (IC50) came out at 15.9 nM. This IC50 lies about 5.1-fold lower than the previous one.

In turn, `CCN1CC[C@@H]1COc1cnn(C)c1-c1ccn2nc(Nc3cc(OC)ncn3)cc2c1` [Example 167, 5-[4-[[(2R)-1-ethylazetidin-2-yl]methoxy]-2-methyl-pyrazol-3-yl]-N-(6-methoxypyrimidin-4-yl)pyrazolo[1,5-a]pyridin-2-amine] registered an IC50 of 2.7 nM. This IC50 lies about 5.9-fold lower than the previous one.

In the case of `Cn1ncc(COC2CNCC2(F)F)c1-c1ccn2nc(NC(=O)C3CC3)cc2c1` (racemic) [Example 184, (RS)—N-[5-[4-[(4,4-difluoropyrrolidin-3-yl)oxymethyl]-2-methyl-pyrazol-3-yl]pyrazolo[1,5-a]pyridin-2-yl]cyclopropanecarboxamide], half-maximal inhibition (IC50) required 14.5 nM.

In turn, `Cc1cc(Nc2cc3cc(-c4c(O[C@@H]5COC[C@@H]5C)cnn4C)ccn3n2)nc(C)n1` (single isomer, unassigned) [Example 445, (3*S,4*S)—N-(2,6-dimethylpyrimidin-4-yl)-5-[2-methyl-4-(4-methyltetrahydrofuran-3-yl)oxy-pyrazol-3-yl]pyrazolo[1,5-a]pyridin-2-amine] registered an IC50 of 78.9 nM.

The compound `CO[C@H]1CNC[C@H]1Oc1noc(C)c1-c1ccn2nc(Nc3cc(C)c(C)nn3)cc2c1` [Example 95, N-(5,6-dimethylpyridazin-3-yl)-5-[3-[(3R,4S)-4-methoxypyrrolidin-3-yl]oxy-5-methyl-isoxazol-4-yl]pyrazolo[1,5-a]pyridin-2-amine] came in with an IC50 of 5.3 nM. Compared with the last compound, the IC50 is about 15-fold lower.

The compound `Cc1cc(Nc2cc3cc(-c4c(O[C@@H]5CCN(C)[C@H]5C)cnn4C)ccn3n2)nc(C)n1` [Example 354, N-(2,6-dimethylpyrimidin-4-yl)-5-[4-[(2S,3R)-1,2-dimethylpyrrolidin-3-yl]oxy-2-methyl-pyrazol-3-yl]pyrazolo[1,5-a]pyridin-2-amine] yielded an IC50 of 67.3 nM.

Compound `Cc1cc(Nc2cc3cc(-c4c(OC[C@@H]5CC[C@@H]5O)cnn4C)ccn3n2)nc(C)n1` (single isomer, unassigned) [Example 448, (1*S,2*S)-2-[[5-[2-[(2,6-dimethylpyrimidin-4-yl)amino]pyrazolo[1,5-a]pyridin-5-yl]-1-methyl-pyrazol-4-yl]oxymethyl]cyclobutanol] displayed a 50% inhibitory concentration (IC50) of 115 nM.

As for `CCN1CC[C@@H]1COc1cnn(C)c1-c1ccn2nc(Nc3cc(C)ncn3)cc2c1` [Example 19, 5-[4-[[(2R)-1-Ethylazetidin-2-yl]methoxy]-2-methyl-pyrazol-3-yl]-N-(6-methylpyrimidin-4-yl)pyrazolo[1,5-a]pyridin-2-amine], the IC50 worked out at 1.2 nM.

In the case of `Cn1ncc(OC[C@H]2CCN2C2CC2)c1-c1ccn2nc(NC(=O)C3CC3)cc2c1` [Example 347, N-[5-[4-[[(2R)-1-cyclopropylazetidin-2-yl]methoxy]-2-methyl-pyrazol-3-yl]pyrazolo[1,5-a]pyridin-2-yl]cyclopropanecarboxamide], the concentration for half-maximal inhibition (IC50) came out at 68 nM.

Regarding `CN1CC(Oc2cnn(C)c2-c2ccn3nc(NC(=O)C4CC4)cc3c2)C1` [Example 399, N-[5-[2-methyl-4-(1-methylazetidin-3-yl)oxy-pyrazol-3-yl]pyrazolo[1,5-a]pyridin-2-yl]cyclopropanecarboxamide], inhibition was half-maximal at 174 nM (IC50).

`[2H]C([2H])([2H])C([2H])([2H])N1CCC[C@@H]1COc1cnn(C)c1-c1ccn2nc(Nc3cc(C)nc(C)n3)cc2c1` [Example 293, N-(2,6-dimethylpyrimidin-4-yl)-5-[2-methyl-4-[[(2R)-1-(1,1,2,2,2-pentadeuterioethyl)pyrrolidin-2-yl]methoxy]pyrazol-3-yl]pyrazolo[1,5-a]pyridin-2-amine] registered an IC50 below 0.847 nM.

`Cn1ncc(O[C@@H]2CNC[C@@H]2F)c1-c1ccn2nc(NC(=O)C3CC3)cc2c1` [Example 242, N-[5-[4-[(3R,4S)-4-fluoropyrrolidin-3-yl]oxy-2-methyl-pyrazol-3-yl]pyrazolo[1,5-a]pyridin-2-yl]cyclopropanecarboxamide] showed a half-maximal inhibitory concentration (IC50) of 8.3 nM.

On to `COc1cc(Nc2cc3cc(-c4c(OC[C@H]5CCN5C)cnn4C)ccn3n2)ncn1` [Example 127, N-(6-methoxypyrimidin-4-yl)-5-[2-methyl-4-[[(2R)-1-methylazetidin-2-yl]methoxy]pyrazol-3-yl]pyrazolo[1,5-a]pyridin-2-amine], for which the concentration for half-maximal inhibition (IC50) stood at 11 nM.

Regarding `Cc1cc(Nc2cc3cc(-c4c(OC[C@H]5CCN5C)cnn4C)ccn3n2)nc(C2CC2)n1` [Example 144, N-(2-cyclopropyl-6-methyl-pyrimidin-4-yl)-5-[2-methyl-4-[[(2R)-1-methylazetidin-2-yl]methoxy]pyrazol-3-yl]pyrazolo[1,5-a]pyridin-2-amine], the IC50 was below 0.847 nM.

On to `Cn1ncc(OC[C@H]2CCN2Cc2ccccc2)c1-c1ccn2nc(NC(=O)C3CC3)cc2c1` [Example 429, N-[5-[4-[[(2R)-1-benzylazetidin-2-yl]methoxy]-2-methyl-pyrazol-3-yl]pyrazolo[1,5-a]pyridin-2-yl]cyclopropanecarboxamide], for which the IC50 amounted to 99.9 nM.

Consider `Cc1cnc(Nc2cc3cc(-c4c(OC[C@H]5CCN5C[C@H](C)O)cnn4C)ccn3n2)cn1` [Example 296, (2S)-1-[(2R)-2-[[1-methyl-5-[2-[(5-methylpyrazin-2-yl)amino]pyrazolo[1,5-a]pyridin-5-yl]pyrazol-4-yl]oxymethyl]azetidin-1-yl]propan-2-ol], for which 6.2 nM corresponded to half-maximal inhibition (IC50).

For `CN1CC[C@H](Oc2cnn(C)c2-c2ccn3nc(Nc4cc5c(nn4)CCC5)cc3c2)C1` [Example 269, N-(6,7-dihydro-5H-cyclopenta[c]pyridazin-3-yl)-5-[2-methyl-4-[(3S)-1-methylpyrrolidin-3-yl]oxy-pyrazol-3-yl]pyrazolo[1,5-a]pyridin-2-amine], the 50% inhibitory concentration (IC50) turned out to be 33.2 nM.
